Test results as given in patent US11707442B2, “Antibacterial and antifungal compounds” (The General Hospital Corporation, priority 2015, dated 2023).
≈ marks a conversion by molar mass, not a printed value. Where two headings read alike, the source gives them in different places.

Tests used:
E. faecium = assay: MIC, broth microdilution; assay type: cell-based, Enterococcus faecium; settings: Enterococcus faecium, read-out: Minimum inhibitory concentration
Procedure, shortened: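 MIC by CLSI broth microdilution (M07-A8) in MH broth; E. aerogenes, K. pneumoniae and A. baumannii pre-grown in LB, E. faecium in BHI, at 37° C. Inoculum at initial OD600 0.03, incubated 18 hrs at 35° C., growth read as absorbance at 595 nm.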

[1] = tested on: S. aureus persister cells (stationary phase); assay: Persister killing assay; assay type: cell-based, Staphylococcus aureus; settings: result in words
Method: Persister killing assay. […] Persister cells of these 13 S. aureus strains were developed by growing cultures overnight to stationary phase at 37° C. at 225 rpm. The overnight cultures were washed three times with PBS and diluted to ˜10^7 CFU/ml with the same buffer, which is the same concentration as used in the killing kinetics assay described herein. 1 ml of the persister suspension containing appropriate concentrations of antibiotics was added to the wells of a 2 ml deep well assay block (Corning Costar 3960) and incubated at 37° C., with shaking at 225 rpm. At specific times, 50 μl samples were removed, serially diluted and spot-plated on TSA plates to enumerate the number of live cells. These experiments were conducted in triplicate.

[2] = tested on: primary human hepatocytes; assay: Hepatotoxicity (WST-1); assay type: cell-based; settings: at 32 μg/ml, 24 h
Method: Hepatotoxicity. Cryopreserved primary human hepatocytes were purchased from Cell Resource Core at Massachusetts General Hospital (Boston, Mass., USA). The hepatocytes were cultured in collagen sandwiched configuration in 24-well plates, as described previously (See, e.g., Dunn, J. C., et al. Hepatocyte function and extracellular matrix geometry: long-term culture in a sandwich configuration. FASEB J. 3, 174-177 (1989); Dunn, J. C., et al. Hepatocytes in collagen sandwich: evidence for transcriptional and translational regulation. J. Cell Biol. 116, 1043-1053 (1992); and Sharma, N. S. et al. Metabolic profiling based quantitative evaluation of hepatocellular metabolism in presence of adipocyte derived extracellular matrix. PLoS ONE 6, e20137 (2011)). Briefly, 0.4×10^6 live cells were seeded in 24-well plates coated with rat tail collagen type I. In order for cells to attach onto collagen gel, the 24-well plates were incubated in a humidified 5% CO2 incubator at 37° C. for 4 hours. The cells were washed and then cultured in 0.5 ml standard hepatocyte culture medium consisting of pre-warmed DMEM media supplemented with 10% FBS, 0.5 U/ml insulin, 14 ng/ml glucagon, 20 ng/ml EGF, 7.5 μg/ml hydrocortisone and 200 U/ml penicillin-streptomycin. The cell cultures were incubated in a humidified 5% CO2 incubator at 37° C. At 24 h after seeding, a top layer of collagen gel was deposited on the hepatocytes attached to the bottom collagen layer and incubated for another 24 h, then the hepatocytes were treated with a range of concentrations of retinoids for 24 h. […] WST-1 reduction was measured at absorbance 450 nm. The percent […] relative to that of the no-treatment control was calculated. […]
0.4×10^6 primary human hepatocytes cultured in a collagen gel sandwich system were treated with a range of concentration of the synthetic retinoids for 24 h. Cell viability was calculated based on the absorbance readings at 450 nm at 4 h after adding WST-1 using the following equation: % viability=(Abssample−Absblank)/(Absnon-treated−Absblank)×100. […]

S. aureus = assay: Minimal inhibitory concentration (MIC), broth microdilution; assay type: cell-based, Staphylococcus aureus
Procedure, shortened: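 MIC values against methicillin-resistant Staphylococcus aureus were determined by standard broth microdilution following Clinical and Laboratory Standards Institute guidance (CLSI document M07-A8). Each well held 100 μl of test compound plus bacterial cells in MH broth, with the starting OD600 set to 0.03. Plates were incubated 18 hrs at 35° C. and absorbance was then read at 595 nm.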

O=C(O)/C=C/c1ccc(-c2ccc(O)c(C34CC5CC(CC(C5)C3)C4)c2)cc1 [Adarotene, (2E)-3-(4′-Hydroxy-3′-tricyclo[3.3.1.13,7]dec-1-yl[1,1′-biphenyl]-4-yl)-2-propenoic acid] gave an MIC (E. faecium; E. faecium C68) of 4 mg/L (≈ 10.7 µM), an MIC (E. faecium; E. faecium D14) of 4 mg/L (≈ 10.7 µM) and an MIC (E. faecium; E. faecium D24) of 2 mg/L (≈ 5.34 µM). The MIC (E. faecium; E. faecium D25) was 4 mg/L (≈ 10.7 µM), the MIC (E. faecium; E. faecium D29) was 2 mg/L (≈ 5.34 µM) and the MIC (E. faecium; E. faecium E007) was 4 mg/L (≈ 10.7 µM). The MIC (E. faecium; E. faecium WB213) was 2 mg/L (≈ 5.34 µM), the MIC (E. faecium; E. faecium WC176) was 4 mg/L (≈ 10.7 µM) and the “eradication of S. aureus strain MW2 persisters” value ([1]; 8×MIC) was “did not”. The “eradication of persisters formed by S. aureus strain VRS1 and 11 clinical S. aureus strains” value ([1]; 10×MIC, 4 h) was “not”, the “toxicity to primary human hepatocytes” value [2] was “did not cause significant toxicity” and the MIC (S. aureus; MRSA MW2, text b656, read-out: MIC) was 2 mg/L (≈ 5.34 µM). For the same molecule, the MIC (S. aureus; Staphylococcus aureus, MRSA, 28 clinical MRSA isolates, 1 strain, read-out: MIC) was 4 mg/L (≈ 10.7 µM), the MIC (S. aureus; Staphylococcus aureus, S. aureus BF1, read-out: Minimum inhibitory concentration) was 4 mg/L (≈ 10.7 µM) and the MIC (S. aureus; Staphylococcus aureus, S. aureus BF2, read-out: Minimum inhibitory concentration) was 2 mg/L (≈ 5.34 µM). The MIC (S. aureus; Staphylococcus aureus, S. aureus BF3, read-out: Minimum inhibitory concentration) was 2 mg/L (≈ 5.34 µM), the MIC (S. aureus; Staphylococcus aureus, S. aureus BF4, read-out: Minimum inhibitory concentration) was 2 mg/L (≈ 5.34 µM) and the MIC (S. aureus; Staphylococcus aureus, S. aureus BF5, read-out: Minimum inhibitory concentration) was 2 mg/L (≈ 5.34 µM). For the same molecule, the MIC (S. aureus; Staphylococcus aureus, S. aureus BF6, read-out: Minimum inhibitory concentration) was 2 mg/L (≈ 5.34 µM), the MIC (S. aureus; Staphylococcus aureus, S. aureus BF7, read-out: Minimum inhibitory concentration) was 2 mg/L (≈ 5.34 µM) and the MIC (S. aureus; Staphylococcus aureus, S. aureus BF8, read-out: Minimum inhibitory concentration) was 2 mg/L (≈ 5.34 µM). It also gave an MIC (S. aureus; Staphylococcus aureus, S. aureus BF9, read-out: Minimum inhibitory concentration) of 2 mg/L (≈ 5.34 µM), an MIC (S. aureus; Staphylococcus aureus, S. aureus BF10, read-out: Minimum inhibitory concentration) of 2 mg/L (≈ 5.34 µM) and an MIC (S. aureus; Staphylococcus aureus, S. aureus BF11, read-out: Minimum inhibitory concentration) of 2 mg/L (≈ 5.34 µM). It also gave an MIC (S. aureus; Staphylococcus aureus, S. aureus JE2 (wild-type), read-out: MIC) of 2.5 mg/L (≈ 6.68 µM), an MIC (S. aureus; Staphylococcus aureus, S. aureus MW2, read-out: Minimum inhibitory concentration) of 2 mg/L (≈ 5.34 µM) and an MIC (S. aureus; Staphylococcus aureus, S. aureus MW2 mutant SP1-8 (graS)) of 3 mg/L (≈ 8.01 µM). It also gave an MIC (S. aureus; Staphylococcus aureus, S. aureus MW2 mutant SP1-48 (graS, manA)) of 4 mg/L (≈ 10.7 µM), an MIC (S. aureus; Staphylococcus aureus, S. aureus MW2 mutant SP1-74 (graS, manA, MW2474)) of 4 mg/L (≈ 10.7 µM) and an MIC (S. aureus; Staphylococcus aureus, S. aureus MW2 mutant SP1-100 (graS, manA, MW2474)) of 4 mg/L (≈ 10.7 µM). The MIC (S. aureus; Staphylococcus aureus, S. aureus MW2 mutant SP2-13 (yjbH)) was 3 mg/L (≈ 8.01 µM), the MIC (S. aureus; Staphylococcus aureus, S. aureus MW2 mutant SP2-52 (yjbH, dltB)) was 3 mg/L (≈ 8.01 µM) and the MIC (S. aureus; Staphylococcus aureus, S. aureus MW2 mutant SP2-59 (yjbH, dltB, manA)) was 4 mg/L (≈ 10.7 µM). The MIC (S. aureus; Staphylococcus aureus, S. aureus MW2 mutant SP2-65 (yjbH, dltB, manA, MW1685)) was 4 mg/L (≈ 10.7 µM), the MIC (S. aureus; Staphylococcus aureus, S. aureus MW2 mutant SP2-100 (yjbH dltB, manA, MW1685)) was 4 mg/L (≈ 10.7 µM) and the MIC (S. aureus; Staphylococcus aureus, S. aureus MW2 serial passage culture SP1-1 (no mutated gene)) was 2 mg/L (≈ 5.34 µM). The MIC (S. aureus; Staphylococcus aureus, S. aureus MW2 serial passage culture SP2-1 (no mutated gene)) was 2 mg/L (≈ 5.34 µM), the MIC (S. aureus; Staphylococcus aureus, S. aureus NE896 (JE2 yjbH::ϕNΣ)) was 4 mg/L (≈ 10.7 µM) and the MIC (S. aureus; Staphylococcus aureus, S. aureus NE1645 (JE2 manA::ϕNΣ)) was 4 mg/L (≈ 10.7 µM). For the same molecule, the MIC (S. aureus; Staphylococcus aureus, S. aureus NE1756 (JE2 graS::ϕNΣ)) was 4 mg/L (≈ 10.7 µM), the MIC (S. aureus; Staphylococcus aureus, S. aureus VRS1, read-out: Minimum inhibitory concentration) was 1 mg/L (≈ 2.67 µM) and the MIC (S. aureus; Staphylococcus aureus, methicillin resistant S. aureus (MRSA) strain MW2, read-out: MIC) was 2 mg/L (≈ 5.34 µM).
